According to patent US10702506B2, “Small molecule inhibitors of pendrin ion exchange and pharmaceutical compositions” (THE REGENTS OF THE UNIVERSITY OF CALIFORNIA, priority 2016, dated 2020):

Target: T1, ENaC (Homo sapiens, UniProt P37088+P51168+P51170)
T1 construct: endogenous in cells; host or cells: IL-13-treated primary human bronchial epithelial (HBE) cell cultures
T1 sequence (P37088 1-669): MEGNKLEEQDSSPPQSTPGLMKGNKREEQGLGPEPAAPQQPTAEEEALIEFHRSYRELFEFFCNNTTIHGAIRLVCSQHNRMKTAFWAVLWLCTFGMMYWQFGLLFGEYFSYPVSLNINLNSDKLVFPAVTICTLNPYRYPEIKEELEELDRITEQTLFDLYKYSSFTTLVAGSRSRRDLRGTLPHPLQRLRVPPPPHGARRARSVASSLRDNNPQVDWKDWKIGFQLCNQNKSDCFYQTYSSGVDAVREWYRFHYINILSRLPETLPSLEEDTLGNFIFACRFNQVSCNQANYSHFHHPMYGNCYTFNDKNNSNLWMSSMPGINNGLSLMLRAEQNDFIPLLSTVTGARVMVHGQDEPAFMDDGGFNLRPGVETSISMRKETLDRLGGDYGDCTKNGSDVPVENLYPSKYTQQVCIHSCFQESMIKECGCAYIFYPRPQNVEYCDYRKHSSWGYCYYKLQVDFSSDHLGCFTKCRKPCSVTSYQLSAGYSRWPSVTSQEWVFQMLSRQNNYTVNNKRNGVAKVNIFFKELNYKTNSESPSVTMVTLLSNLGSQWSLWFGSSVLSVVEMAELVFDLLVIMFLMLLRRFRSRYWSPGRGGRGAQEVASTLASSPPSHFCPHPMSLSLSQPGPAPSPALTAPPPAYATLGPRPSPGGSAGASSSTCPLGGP
T1 sequence (P51168 1-640): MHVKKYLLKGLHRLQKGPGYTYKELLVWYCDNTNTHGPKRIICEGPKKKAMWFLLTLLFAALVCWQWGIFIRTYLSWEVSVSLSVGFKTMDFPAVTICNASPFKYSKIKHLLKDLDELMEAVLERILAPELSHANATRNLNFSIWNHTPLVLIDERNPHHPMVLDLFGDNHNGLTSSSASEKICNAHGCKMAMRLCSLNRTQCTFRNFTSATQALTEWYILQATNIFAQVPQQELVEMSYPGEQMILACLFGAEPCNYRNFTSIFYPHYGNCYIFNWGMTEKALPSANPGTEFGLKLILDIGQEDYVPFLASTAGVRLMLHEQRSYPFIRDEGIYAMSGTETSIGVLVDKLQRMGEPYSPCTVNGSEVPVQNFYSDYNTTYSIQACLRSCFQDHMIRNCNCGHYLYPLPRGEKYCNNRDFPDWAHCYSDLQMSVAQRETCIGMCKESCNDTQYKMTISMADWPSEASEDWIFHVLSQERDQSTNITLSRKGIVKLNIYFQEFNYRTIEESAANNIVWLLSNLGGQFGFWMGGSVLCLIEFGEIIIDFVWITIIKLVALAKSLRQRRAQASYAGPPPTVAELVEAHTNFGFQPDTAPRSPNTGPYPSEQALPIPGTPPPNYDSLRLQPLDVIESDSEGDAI
T1 sequence (P51170 1-649): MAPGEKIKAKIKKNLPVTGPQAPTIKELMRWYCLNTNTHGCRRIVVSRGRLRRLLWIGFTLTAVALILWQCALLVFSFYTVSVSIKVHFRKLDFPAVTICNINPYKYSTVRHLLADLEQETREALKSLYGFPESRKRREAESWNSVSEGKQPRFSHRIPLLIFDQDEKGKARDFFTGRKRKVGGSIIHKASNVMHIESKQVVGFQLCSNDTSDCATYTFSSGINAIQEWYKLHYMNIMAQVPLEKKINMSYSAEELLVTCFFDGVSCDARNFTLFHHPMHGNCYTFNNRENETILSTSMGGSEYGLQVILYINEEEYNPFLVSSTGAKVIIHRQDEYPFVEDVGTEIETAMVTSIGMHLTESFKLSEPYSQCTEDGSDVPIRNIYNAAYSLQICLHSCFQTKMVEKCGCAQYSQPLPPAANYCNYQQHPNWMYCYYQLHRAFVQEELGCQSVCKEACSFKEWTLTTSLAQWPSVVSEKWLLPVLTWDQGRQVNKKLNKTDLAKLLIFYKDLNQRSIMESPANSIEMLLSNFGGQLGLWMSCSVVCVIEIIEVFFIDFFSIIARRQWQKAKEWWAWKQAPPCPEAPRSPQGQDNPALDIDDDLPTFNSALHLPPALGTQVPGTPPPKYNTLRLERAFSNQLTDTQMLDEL
Assay: Short-circuit current (Isc) analysis in IL-13-treated HBE cells, amiloride response
Assay type: cell-based
Conditions: 25 μM, 30 min pre-treatment
Protocol: Further experiments were done with PDSinh-A01 because of its greater inhibition potency for Cl^−/HCO3^− exchange than PDSinh-C01. To investigate PDSinh-A01 specificity, the major ion transport pathways in HBE cells were studied by short-circuit current (Isc) analysis. Cells were treated with IL-13 to increase Ca^2+-activated Cl^− conductance (CaCC) activity. For Isc measurements, cells were sequentially treated with amiloride to inhibit the epithelial sodium channel (ENaC), forskolin to activate the cystic fibrosis transmembrane conductance regulator (CFTR), CFTRinh-172 to inhibit CFTR, and ATP to activate CaCC. In the absence of PDSinh-A01, ion channel modulators produced the anticipated changes in Isc (FIG. 4A).
IL-13-treated HBE cells were cultured on Snapwell clear permeable supports (12 mm diameter, 0.4 μm polyester membrane, Costar, Corning, Corning, N.Y.). Short-circuit current was measured using symmetrical HCO3^−-buffered solutions (in mM: 120 NaCl, 5 KCl, 1 MgCl2, 1 CaCl2, 5 Hepes, 25 NaHCO3; pH 7.4) as described, with ion transport modulators added to both apical and basolateral bathing solutions. Cells were equilibrated with 95% O2/5% CO2 and maintained at 37° C. during data acquisition. Statistical analysis was by Student's t-test.

effect on ENaC activity (Isc response): did not affect the activity
SMILES: Cn1nc(COc2cccc(F)c2)c2c1CCN(C(=O)Nc1ccc(Cl)cc1)C2 [PDSinh-A01]
